According to PMC10820527, “Synthesis, Characterization, and Investigation of Anti-Inflammatory and Cytotoxic Activities of Novel Thiourea Derivatives of Naproxen” (Pharmaceutics, 2023):

How the values were obtained:
[1] = tested on: carrageenan-induced rat paw edema; test: Carrageenan-induced rat paw edema model; assay type: in vivo; details: for Rat Paw Thickness: mean ± SD; for inhibition in vivo at 2.5 mg/kg / inhibition in vivo at 5 mg/kg / inhibition in vivo at 10 mg/kg: Rattus norvegicus
Method: The Carrageenan-induced rat paw edema model was used to assess the anti-inflammatory potential of novel compounds 8–14. Induction of inflammation was performed in all animals by intraplantar injection of […] 0.5% carrageenan saline into the left hind paw.
Animals (n = 200) were randomly divided into the following groups: control groups, that received either 1% DMSO or naproxen, and experimental groups, that received the novel compounds 8–14.
Control groups included DMSO and naproxen groups. Rats belonging to the DMSO group received 1% DMSO in the same volume as the compounds 8–14, 60 min before carrageenan injection. Moreover, naproxen groups included rats that were subjected to naproxen treatment in three doses: 2.5 mg/kg, 5 mg/kg, and 10 mg/kg. Naproxen was applied in the same manner as 1% DMSO.
Experimental groups included rats that were treated with compounds 8–14 and they were divided into three subgroups depending on the applied dose: 2.5 mg/kg, 5 mg/kg, and 10 mg/kg. The examined compounds were dissolved in 1% DMSO prior to treatment and applied to rats 60 min before inducing inflammation, i.e., before carrageenan injection. Doses of naproxen and investigated compounds were defined based on our previously published research.
In order to quantify the anti-inflammatory effects of the tested compounds, left paw thickness was measured at specific time points: prior to inflammation induction (moment 0) and 1, 2, 3, and 4 h (moments 1, 2, 3, and 4) following carrageenan injection. Tissue thickness was measured in the middle of the rat paw using a Digital Vernier caliper (Aerospace, China). The percentage of inhibition of paw edema after treatment with different agents was calculated according to the formula, Equation (2):% Inhibition = 100 × [1 − (Yt/Yc)](2) where Yt = average increase in paw thickness in the treated group of rats between two measurement moments, and Yc = average increase in paw thickness in the untreated group of rats between two measurement moments.

HCT 116 = test: MTT cytotoxicity assay, HCT 116; assay type: cell-based, human; details: for IC50: Homo sapiens, mean ± SD
Method: Three cancer cell lines (MDA-MB-231, HCT116 and HeLa; i.e., human breast cancer cells, human colorectal cancer cells, and human cervical cancer cells, respectively), and one non-malignant fibroblast MRC-5 cell line (control) were used in this study. The American Type Cell Collection (ATCC, Manassas, VA, USA) provided all examined cell lines. The cells were grown in a complete medium made up of high-glucose DMEM media supplemented with 10% fetal bovine serum and […] L-glutamine (both from Sigma-Aldrich, USA). The cells were cultured in 25 cc flasks (Thermo Fischer Scientific, Waltham, MA, USA) at 37 °C with 100% humidity in a 5% CO2 atmosphere.
The MTT test was used to assess the cytotoxicity of compounds 1–14 [44]. The cytotoxicity of naproxen was also investigated due to its clinical use and structural similarity. Throughout the exponential development period, cells were taken from culture flasks and counted, and 5 × 10^3 cells/well were planted into 96-well culture plates. Following that, the cell lines were treated with varying doses of the investigated chemicals (1–14), naproxen ([…]), and fresh complete media as a control. All evaluated cells were incubated for 24, 48, and 72 h at 37 °C in an environment containing 5% CO2 and 100% humidity. Following incubation, each well’s culture media was taken out, each well received an addition of MTT solution at a final concentration of 0.5 mg/mL, and the cells were left to incubate for an additional four hours. The MTT solution was then withdrawn carefully, and the formazan crystals were dissolved in DMSO. After shaking the plates for 10 min, absorbance at 595 nm was measured using a multiplate reader (Zenyth 3100, Anthos Labtec Instruments, Salzburg, Austria). All concentrations of the tested compounds were performed in three separate wells of the microtiter plates and in three separate experiments. The results were reported as a ratio to the control value, untreated cells. IC50 values were also determined using Microsoft Office Excel 2021. The percentage of viable cells was estimated by dividing the readout absorbance value in the wells containing treated cells by the average absorbance value measured in the wells containing untreated cells, and multiplying the result by 100 [44]. % of the viable cells = ((absorbance of treated cell-absorbance of blank)/(absorbance of untreated cell-absorbance of blank)) × 100(3)

[2] = 2.5 mg/kg, 1 h after carrageenan
[3] = 2.5 mg/kg, 2 h after carrageenan
[4] = 2.5 mg/kg, 3 h after carrageenan
[5] = 2.5 mg/kg, 4 h after carrageenan
[6] = 5.0 mg/kg, 1 h after carrageenan
[7] = 5.0 mg/kg, 2 h after carrageenan
[8] = 5.0 mg/kg, 3 h after carrageenan
[9] = 5.0 mg/kg, 4 h after carrageenan
[10] = 10.0 mg/kg, 1 h after carrageenan
[11] = 10.0 mg/kg, 2 h after carrageenan
[12] = 10.0 mg/kg, 3 h after carrageenan
[13] = 10.0 mg/kg, 4 h after carrageenan

Structure (SMILES) | Rat Paw Thickness [1, 2] [mm] | Rat Paw Thickness [1, 3] [mm] | Rat Paw Thickness [1, 4] [mm] | Rat Paw Thickness [1, 5] [mm] | Rat Paw Thickness [1, 6] [mm] | Rat Paw Thickness [1, 7] [mm] | Rat Paw Thickness [1, 8] [mm] | Rat Paw Thickness [1, 9] [mm] | Rat Paw Thickness [1, 10] [mm] | Rat Paw Thickness [1, 11] [mm] | Rat Paw Thickness [1, 12] [mm] | Rat Paw Thickness [1, 13] [mm] | inhibition in vivo at 2.5 mg/kg ([1]; 2.5 mg/kg, 1 h) [%] | inhibition in vivo at 2.5 mg/kg ([1]; 2.5 mg/kg, 2 h) [%] | inhibition in vivo at 2.5 mg/kg ([1]; 2.5 mg/kg, 3 h) [%] | inhibition in vivo at 2.5 mg/kg ([1]; 2.5 mg/kg, 4 h) [%] | inhibition in vivo at 5 mg/kg ([1]; 5.0 mg/kg, 1 h) [%] | inhibition in vivo at 5 mg/kg ([1]; 5.0 mg/kg, 2 h) [%] | inhibition in vivo at 5 mg/kg ([1]; 5.0 mg/kg, 3 h) [%] | inhibition in vivo at 5 mg/kg ([1]; 5.0 mg/kg, 4 h) [%] | also measured
COc1ccc2cc([C@H](C)C(=O)NC(=S)Nc3ccc(C)cc3)ccc2c1 [Compound 9, (S)-2-(6-methoxynaphthalen-2-yl)-N-(p-tolylcarbamothioyl)propanamide] | 6.60 ± 0.10 | 6.33 ± 0.06 | 5.97 ± 0.06 | 5.70 ± 0.26 | 6.53 ± 0.32 | 6.23 ± 0.23 | 5.90 ± 0.17 | 5.50 ± 0.36 | 6.20 ± 0.17 | 5.83 ± 0.29 | 5.33 ± 0.15 | 5.05 ± 0.09 | 25.2 | 28.8 | 35.1 | 37.8 | 22.4 | 27.3 | 31.5 | 42.2 | inhibition in vivo at 10 mg/kg ([1]; 10.0 mg/kg, 1 h): 22.4%; inhibition in vivo at 10 mg/kg ([1]; 10.0 mg/kg, 2 h): 30.3%; inhibition in vivo at 10 mg/kg ([1]; 10.0 mg/kg, 3 h): 44.1%; inhibition in vivo at 10 mg/kg ([1]; 10.0 mg/kg, 4 h): 50%; Cytotoxic effect against the HCT 116 cell line (in words) (HCT 116): moderate cytotoxic effects; IC50 (HCT 116; HCT-116, 24 h): > 200 µM; IC50 (HCT 116; HCT-116, 48 h): 105 ± 14.8 µM; IC50 (HCT 116; HCT-116, 72 h): 52.9 ± 8.1 µM
COc1ccc2cc([C@H](C)C(=O)NC(=S)Nc3ccccc3OC)ccc2c1 [Compound 11, (S)-2-(6-methoxynaphthalen-2-yl)-N-((2-methoxyphenyl)carbamothioyl)propanamide] | 7.30 ± 0.60 | 6.97 ± 0.67 | 6.67 ± 0.80 | 6.50 ± 0.80 | 6.97 ± 0.12 | 6.73 ± 0.15 | 6.27 ± 0.23 | 6.07 ± 0.15 | 7.33 ± 0.06 | 6.93 ± 0.12 | 6.63 ± 0.15 | 6.17 ± 0.31 | 22.4 | 28.8 | 31.5 | 26.7 | 22.4 | 24.2 | 35.1 | 33.3 | inhibition in vivo at 10 mg/kg ([1]; 10.0 mg/kg, 1 h): 10.2%; inhibition in vivo at 10 mg/kg ([1]; 10.0 mg/kg, 2 h): 18.2%; inhibition in vivo at 10 mg/kg ([1]; 10.0 mg/kg, 3 h): 18.9%; inhibition in vivo at 10 mg/kg ([1]; 10.0 mg/kg, 4 h): 31.1%; IC50 (HCT 116; HCT-116, 24 h): > 200 µM; IC50 (HCT 116; HCT-116, 48 h): > 200 µM; IC50 (HCT 116; HCT-116, 72 h): > 200 µM
COC(=O)[C@H](Cc1c[nH]c2ccccc12)NC(=S)NC(=O)[C@@H](C)c1ccc2cc(OC)ccc2c1 [Compound 14, Methyl (((S)-2-(6-methoxynaphthalen-2-yl)propanoyl)carbamothioyl)tryptophanate] | 6.53 ± 0.42 | 6.23 ± 0.25 | 5.90 ± 0.26 | 5.33 ± 0.49 | 6.77 ± 0.38 | 6.53 ± 0.42 | 6.17 ± 0.25 | 5.80 ± 0.10 | 7.03 ± 0.21 | 6.47 ± 0.06 | 6.03 ± 0.25 | 5.67 ± 0.21 | 12.9 | 16.7 | 18.9 | 37.8 | 25.2 | 27.3 | 33.3 | 42.2 | inhibition in vivo at 10 mg/kg ([1]; 10.0 mg/kg, 1 h): 11.6%; inhibition in vivo at 10 mg/kg ([1]; 10.0 mg/kg, 2 h): 27.3%; inhibition in vivo at 10 mg/kg ([1]; 10.0 mg/kg, 3 h): 36.9%; inhibition in vivo at 10 mg/kg ([1]; 10.0 mg/kg, 4 h): 46.7%; Cytotoxic effect against the HCT 116 cell line (in words) (HCT 116): moderate cytotoxic effects; IC50 (HCT 116; HCT-116, 24 h): 150 ± 7.6 µM; IC50 (HCT 116; HCT-116, 48 h): 108 ± 12.7 µM; IC50 (HCT 116; HCT-116, 72 h): 47.1 ± 5.4 µM
COc1ccc2cc([C@H](C)C(=O)NC(=S)Nc3ccccc3F)ccc2c1 [Compound 12, (S)-N-((2-fluorophenyl)carbamothioyl)-2-(6-methoxynaphthalen-2-yl)propanamide] | 6.83 ± 0.38 | 6.43 ± 0.40 | 6.00 ± 0.30 | 5.53 ± 0.06 | 6.07 ± 0.64 | 5.83 ± 0.49 | 5.57 ± 0.38 | 5.03 ± 0.12 | 6.33 ± 0.21 | 6.03 ± 0.06 | 5.60 ± 0.10 | 5.17 ± 0.21 | 8.84 | 16.7 | 24.3 | 37.8 | 18.4 | 19.7 | 18.9 | 35.6 | inhibition in vivo at 10 mg/kg ([1]; 10.0 mg/kg, 1 h): 19.7%; inhibition in vivo at 10 mg/kg ([1]; 10.0 mg/kg, 2 h): 24.2%; inhibition in vivo at 10 mg/kg ([1]; 10.0 mg/kg, 3 h): 33.3%; inhibition in vivo at 10 mg/kg ([1]; 10.0 mg/kg, 4 h): 46.7%; Cytotoxic effect against the HCT 116 cell line (in words) (HCT 116): moderate cytotoxic effects; IC50 (HCT 116; HCT-116, 24 h): > 200 µM; IC50 (HCT 116; HCT-116, 48 h): 159 ± 17.5 µM; IC50 (HCT 116; HCT-116, 72 h): 68.8 ± 9.5 µM
